This is an account of results in patent publication US8420851B2, “Selective TR-β 1 agonist” (Cadila Healthcare Limited, priority 2006, dated 2013).

Broadly, the EC50 is the concentration needed to bring the measured effect to its halfway point. A higher EC50 goes with weaker potency.

The target in one series is T1, TR-α (Homo sapiens, UniProt P10827).
T1 sequence (P10827 1-410 isoform P10827-2): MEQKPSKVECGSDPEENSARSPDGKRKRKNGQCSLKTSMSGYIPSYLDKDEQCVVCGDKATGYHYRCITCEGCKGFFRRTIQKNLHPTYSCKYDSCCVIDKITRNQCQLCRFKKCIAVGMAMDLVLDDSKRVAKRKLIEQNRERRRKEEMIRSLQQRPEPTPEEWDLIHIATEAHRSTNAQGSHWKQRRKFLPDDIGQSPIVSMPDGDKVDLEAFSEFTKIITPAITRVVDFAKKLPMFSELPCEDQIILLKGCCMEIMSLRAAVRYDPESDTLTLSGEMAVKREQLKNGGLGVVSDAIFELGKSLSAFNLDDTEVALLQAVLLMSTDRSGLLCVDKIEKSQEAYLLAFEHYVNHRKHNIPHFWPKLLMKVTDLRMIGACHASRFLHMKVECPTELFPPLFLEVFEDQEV
The experiment in a line: In vitro TR-α activity (in-house protocol). Type of series: cell-based. As for the experimental part: (§1) Invitro TR-α & TR-β activities were determined as per in-house protocols and the results of representative compounds are provided in tables 1 & 2 below as a proof of the efficacies of the novel class of compounds disclosed above.

The next series deals with T2, TR-β (Homo sapiens, UniProt P10828).
T2 sequence (P10828 1-461): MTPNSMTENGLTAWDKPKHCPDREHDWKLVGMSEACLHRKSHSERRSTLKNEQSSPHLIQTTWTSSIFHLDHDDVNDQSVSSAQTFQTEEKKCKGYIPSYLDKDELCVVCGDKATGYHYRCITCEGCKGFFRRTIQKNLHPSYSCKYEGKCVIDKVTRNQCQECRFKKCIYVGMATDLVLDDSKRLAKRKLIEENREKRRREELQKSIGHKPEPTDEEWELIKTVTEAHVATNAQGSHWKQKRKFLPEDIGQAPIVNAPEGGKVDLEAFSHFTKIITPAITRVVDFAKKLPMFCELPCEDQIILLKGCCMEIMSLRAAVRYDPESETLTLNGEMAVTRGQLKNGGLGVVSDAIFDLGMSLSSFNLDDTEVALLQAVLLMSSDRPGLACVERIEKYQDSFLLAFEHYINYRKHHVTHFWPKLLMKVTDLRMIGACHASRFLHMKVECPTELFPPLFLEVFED
Description: In vitro TR-β activity (in-house protocol). Type of series: cell-based. Particulars: for fold induction at 0.001 µM: Conc. 1 nM; for fold induction at 0.001 µM / fold induction at 0.01 µM / fold induction at 0.1 µM / fold induction at 1 µM: read-out: TR-β Fold Induction w.r.t T3(100 nm); for fold induction at 0.01 µM: Conc. 10 nM; for fold induction at 0.1 µM: Conc. 100 nM; for fold induction at 1 µM: Conc. 1000 nM. As for the experimental part:
as §1

With `O=C(O)CN(C(=O)Oc1ccc(O)cc1)c1cc(Cl)c(Oc2ccc(O)c(-c3ccccc3)c2)c(Cl)c1` [Example 49, [[3,5-Dichloro-4-(6-hydroxy-biphenyl-3-yloxy)-phenyl]-(4-hydroxy-phenoxycarbonyl)-amino]-acetic acid], the concentration for a half-maximal effect (EC50) at TR-α was found to be 0.038 µM; at TR-β it was 0.0103 µM.

Take `O=C(O)CN(C(=O)Oc1ccc(O)cc1)c1cc(Cl)c(Oc2ccc(O)c(Cc3ccccc3)c2)c(Cl)c1` [Example 50, [[4-(3-Benzyl-4-hydroxy-phenoxy)-3,5-dichloro-phenyl]-(4-hydroxy-phenoxycarbonyl)-amino]-acetic acid]: the EC50 on TR-α is 0.0233 µM; at TR-β, 0.0062 µM.

Turning to `O=C(O)CN(C(=O)Oc1ccc(O)cc1)c1cc(Cl)c(Oc2ccc(O)c(S(=O)(=O)NC3CCC3)c2)c(Cl)c1` [Example 51, [[3,5-Dichloro-4-(3-cyclobutylsulfamoyl-4-hydroxy-phenoxy)-phenyl]-(4-hydroxy-phenoxycarbonyl)-amino]-acetic acid], the “TR-α Fold Induction w.r.t T3(100 nm)” value on TR-α (Conc. 1 nM) is listed as 08.05. Also, at TR-α (Conc. 10 nM), the “TR-α Fold Induction w.r.t T3(100 nm)” value came out at 14.43. For the same compound, on TR-α (Conc. 100 nM), the “TR-α Fold Induction w.r.t T3(100 nm)” value was 32.52. In addition, at TR-α (Conc. 1000 nM), the “TR-α Fold Induction w.r.t T3(100 nm)” value stood at 83.34. Further, on TR-β, the fold induction at 0.001 µM was 8.68, the fold induction at 0.01 µM is 17, the fold induction at 0.1 µM is 54.6 and the fold induction at 1 µM was 102.

Consider `O=C(O)CN(C(=O)Oc1ccc(O)cc1)c1cc(Br)c(Oc2ccc(O)c(S(=O)(=O)NC3CC4CCC3C4)c2)c(Br)c1` (stereo not shown) [Example 53, [{4-[3-(Bicyclo[2.2.1]hept-2-ylsulfamoyl)-4-hydroxy-phenoxy]-3,5-dibromo-phenyl}-(4-hydroxy-phenoxycarbonyl)-amino]-acetic acid], for which the “TR-α Fold Induction w.r.t T3(100 nm)” value on TR-α (Conc. 1 nM) came to 11.19. Further, the “TR-α Fold Induction w.r.t T3(100 nm)” value at TR-α (Conc. 10 nM) is recorded as 12.00. The “TR-α Fold Induction w.r.t T3(100 nm)” value on TR-α (Conc. 100 nM) was 17.15. Further, the “TR-α Fold Induction w.r.t T3(100 nm)” value at TR-α (Conc. 1000 nM) was 50.30. On TR-β, the fold induction at 0.001 µM came to 11, the fold induction at 0.01 µM turned out to be 12.9, the fold induction at 0.1 µM came out at 27 and the fold induction at 1 µM is 91.7.

On to `O=C(O)CN(C(=O)Oc1ccc(O)cc1)c1cc(Cl)c(Oc2ccc(O)c(C(=O)c3ccc(F)cc3)c2)c(Cl)c1` [Example 55, [{3,5-Dichloro-4-[3-(4-fluoro-benzoyl)-4-hydroxy-phenoxy]-phenyl}-(4-hydroxy-phenoxycarbonyl)-amino]-acetic acid], for which the 50% effective concentration (EC50) on TR-α amounted to 0.107 µM; at TR-β, 0.0643 µM.

Turning to `O=C(O)CN(C(=O)Oc1ccc(O)cc1)c1cc(Cl)c(Oc2ccc(O)c(C(O)c3ccc(Cl)cc3)c2)c(Cl)c1` (stereo not shown) [Example 56, [(3,5-Dichloro-4-{3-[(4-chloro-phenyl)-hydroxy-methyl]-4-hydroxy-phenoxy}-phenyl)-(4-hydroxy-phenoxycarbonyl)-amino]-acetic acid], the figures for the EC50 at TR-α and on TR-β were 0.0134 µM and 0.0204 µM, respectively.

Consider `O=C(O)CN(C(=O)Oc1ccc(O)cc1)c1cc(Cl)c(Oc2ccc(O)c(S(=O)(=O)N3CCCCCC3)c2)c(Cl)c1` [Example 57, [{4-[3-(Azepane-1-sulfonyl)-4-hydroxy-phenoxy]-3,5-dichloro-phenyl}-(4-hydroxy-phenoxycarbonyl)-amino]-acetic acid], for which the “TR-α Fold Induction w.r.t T3(100 nm)” value on TR-α (Conc. 1 nM) turned out to be 21.61. Moreover, on TR-α (Conc. 10 nM), the “TR-α Fold Induction w.r.t T3(100 nm)” value was found to be 24.62. At TR-α (Conc. 100 nM), the “TR-α Fold Induction w.r.t T3(100 nm)” value was 35.93. Further, the “TR-α Fold Induction w.r.t T3(100 nm)” value at TR-α (Conc. 1000 nM) was 60.40. On TR-β, the fold induction at 0.001 µM was determined as 12.6, the fold induction at 0.01 µM was found to be 14.8, the fold induction at 0.1 µM came out at 23.6 and the fold induction at 1 µM stood at 62.5.

Consider `O=C(O)CN(C(=O)Oc1ccc(O)cc1)c1cc(Cl)c(Oc2ccc(O)c(S(=O)(=O)N3CCOCC3)c2)c(Cl)c1` [Example 61, [{3,5-Dichloro-4-[4-hydroxy-3-(morpholine-4-sulfonyl)-phenoxy]-phenyl}-(4-hydroxy-phenoxycarbonyl)-amino]-acetic acid], for which, at TR-α (Conc. 1 nM), the “TR-α Fold Induction w.r.t T3(100 nm)” value amounted to 11.55. The “TR-α Fold Induction w.r.t T3(100 nm)” value at TR-α (Conc. 10 nM) was 12.50. Further, at TR-α (Conc. 100 nM), the “TR-α Fold Induction w.r.t T3(100 nm)” value was determined as 12.30. Besides, the “TR-α Fold Induction w.r.t T3(100 nm)” value on TR-α (Conc. 1000 nM) was 28.11. On TR-β, the fold induction at 0.001 µM came out at 10.2, the fold induction at 0.01 µM was 12.2, the fold induction at 0.1 µM is 28.9 and the fold induction at 1 µM is 85.2.

On to `O=C(O)CN(C(=O)Oc1ccc(O)cc1)c1cc(Cl)c(Oc2ccc(O)c(S(=O)(=O)N3CCCC3)c2)c(Cl)c1` [Example 63, [{3,5-Dichloro-4-[4-hydroxy-3-(pyrrolidine-1-sulfonyl)-phenoxy]-phenyl}-(4-hydroxy-phenoxycarbonyl)-amino]-acetic acid], for which the concentration giving a half-maximal response (EC50) at TR-α was 0.337 µM; at TR-β it was 0.254 µM.

Regarding `Cc1cccc(C(=O)c2cc(Oc3c(Cl)cc(N(CC(=O)O)C(=O)Oc4ccc(O)cc4)cc3Cl)ccc2O)c1` [Example 66, [{3,5-Dichloro-4-[4-hydroxy-3-(3-methyl-benzoyl)-phenoxy]-phenyl}-(4-hydroxy-phenoxycarbonyl)-amino]-acetic acid], the “TR-α Fold Induction w.r.t T3(100 nm)” value at TR-α (Conc. 1 nM) amounted to 20.56; on TR-α (Conc. 10 nM), 15.36; on TR-α (Conc. 100 nM), 18.11; at TR-α (Conc. 1000 nM) it was 25.75. At TR-β, the fold induction at 0.001 µM amounted to 36.7. Further, on TR-β, the fold induction at 0.01 µM is 25.9. In addition, the fold induction at 0.1 µM on TR-β worked out at 40.7. At TR-β, the fold induction at 1 µM stood at 55.2.

`O=C(O)CN(C(=O)Oc1ccc(O)cc1)c1cc(Br)c(Oc2ccc(O)c(C(=O)c3ccc(Cl)cc3)c2)c(Br)c1` [Example 67, [{3,5-Dibromo-4-[3-(4-chloro-benzoyl)-4-hydroxy-phenoxy]-phenyl}-(4-hydroxy-phenoxycarbonyl)-amino]-acetic acid]: the values for the EC50 at TR-α and at TR-β were 0.049 µM and 0.0128 µM, respectively.
